In patent publication US4075332A (priority 1976, dated 1978):
Where two headings read alike, the source gives them in different places.

Assays:
Spider mites [1] = experiment: Mite, Systemic; type: in vivo, two-spotted mite; details: Tetranychus urticae
Method: (§1) In the insecticidal and miticidal tests, the experimental compounds were tested as aqueous emulsions. These emulsions were prepared by dissolving the compound in acetone and dispersing it in distilled water with Triton X-100, an alkylaryl polyether alcohol derived by the reaction of i-octylphenol with ethylene oxide, to give spray emulsions containing the desired concentrations of the compound. These emulsions were then used in standard laboratory tests described below.
Mite, Systemic: Bean plants infested with the two-spotted mites were treated by applying 20 ml. of the formulated test chemical to the soil.

Bean aphids [2] = experiment: whole plant or invertebrate; details: Aphis fabae, 48 h
Root-knot nematode = details: in vivo
Southern army worm [3] = experiment: whole plant or invertebrate; details: Spodoptera eridania, read-out: Mortality, % - Southern ArmyWorm
Spider mites [4] = experiment: whole plant or invertebrate; details: Tetranychus urticae, 48 h
Mexican bean beetle = experiment: whole plant or invertebrate; details: Epilachna varivestis
Bean aphids [5] = experiment: Aphid, Systemic; type: in vivo, bean aphid; details: Aphis fabae, 48 h
Method: as §1
Aphid, Systemic: Nasturtium plants infested with the bean aphid were treated by applying 20 ml. of the formulated test chemical to the soil. The degree of aphid control was rated after 2 days.

in vivo = details: rat, po
Bollworm larvae = experiment: Bollworm test on cotton plants; type: in vivo; details: Helicoverpa zea, Table XIV, 0.5 lbs/acre
Method: Bollworms: Bollworm larvae used in the present study were progeny of adult moths collected from light traps stationed in cotton fields. The larvae were reared on the Vanderzant-Adkisson Special Wheat Germ Diet for Insects. This diet was fortified with Vanderzant's Insect Vitamin Fortification. The diet and the vitamin fortification were obtaind from Nutritional Biochemicals Corporation, Cleveland, Ohio. The larvae were reared and tested in continuous illumination at 78±5° […]. Only third and fourth instar larvae which weighed between 25 and 60 mg. were used in the tests.
Insecticidal sprays were made by the conventional low-volume (CLV) method. CLV sprays were applied through a 6X hollow-cone nozzle calibrated to deliver the equivalent of 3.5 ga./acre of the water/emulsion spray mixture. Sprays were applied to individual cotton plants grown in one gallon buckets. After treatment the plants were allowed to dry for 1 to 2 hours in the open air before being transported to a holding room. The larvae were placed on the treated leaf surfaces and held singly in small snap-on type plastic screen cages of about 11/2 inches in diameter. Untreated control groups were maintained for each test replicate so that treatment mortalities could be adjusted according to Abbott's formula. Treatments were replicated 3 times. Each replicate contained 20 larvae. […]

House fly = experiment: whole plant or invertebrate; details: Musca domestica, 48 h, read-out: Mortality Produced, % - House Flies
Southern army worm [6] = details: southern armyworm, in vivo
[7] = Thermal stability of products (GC / nmr observation); type: physicochemical; details: general statement
Description: The corresponding primary alkyl derivatives such as the S'-n-propyl compound are stable under similar conditions.
The ethyl sulfinylmethyl product was unstable at room temperature.

[8] = read-out: Mortality, % - Spider Mites Systemic
[9] = read-out: Mortality, % - Bean Aphids Contact
[10] = read-out: Mortality, % - Spider Mites Contact
[11] = 24 h, read-out: Per Cent Mortality (24 hours After Application)
[12] = 48 h, read-out: Per Cent Mortality (48 hours After Application)
[13] = 72 h, read-out: Per Cent Mortality (72 hours After Application)
[14] = read-out: Mortality Produced, % - Spider Mites Systemic
[15] = read-out: Mortality Produced, % - Bean Aphids Contact
[16] = read-out: Mortality Produced, % - Spider Mites Contact
[17] = read-out: Mortality Produced, % - Mex.Bean Beetle
[18] = read-out: Mortality Produced, % - Bean Aphids Systemic

For CCCSP(=O)(OCC)SCC[S+]([O-])C(C)C (stereo not shown) [Example 8, O-Ethyl S-1-Propyl S'-2-i-Propylsulfinylethyl Dithiophosphate], the mortality at 250 ppm (Spider mites [1]; [8]) was 90%, the mortality at 250 ppm (Bean aphids [2]; [9]) was 100% and the “Nematode Control,% at 25 lb/acre” value (Root-knot nematode) was 75%. The mortality at 250 ppm (Southern army worm [3]) was 90%, the mortality at 250 ppm (Spider mites [4]; [10]) was 95% and the mortality at 250 ppm (Mexican bean beetle; read-out: Mortality, % - Mexican Bean Beetle) was 100%.
In the case of CCCSP(=O)(OCC)SCCSc1ccc(Cl)cc1 (stereo not shown) [Example 5, O-Ethyl S-1-Propyl S'-2-p-Chlorophenylthioethyl Dithiophosphate], the mortality at 250 ppm (Spider mites [1]; [8]) is reported as 40%, the mortality at 250 ppm (Bean aphids [2]; [9]) is reported as 95% and the mortality at 250 ppm (Spider mites [4]; [10]) is reported as 100%. It also gave a mortality at 250 ppm (Mexican bean beetle; read-out: Mortality, % - Mexican Bean Beetles) of 100% and a mortality at 250 ppm (Bean aphids [5]; read-out: Mortality, % - Bean Aphids Systemic) of 10%.
Work on CCOP(=O)(SCC)SCCSCC (stereo not shown) [reference compound] yielded an LD50 at 336 h (in vivo) of 100 mg/kg.
CCCSP(=O)(OCC)SCC(C)SC (stereo not shown) [drawing 53] showed a mortality at 560.425 g/ha (Bollworm larvae; [11]) of 84%, a mortality at 560.425 g/ha (Bollworm larvae; [12]) of 96% and a mortality at 560.425 g/ha (Bollworm larvae; [13]) of 96%.
CCOP(=S)(OCC)SCC(C)SC (stereo not shown) [reference compound] showed an LD50 at 336 h (in vivo) of 25 to 50 mg/kg.
CCCCSP(=O)(OCC)SCC(C)SC (stereo not shown) [Example 41, O-Ethyl S-1-Butyl S'-Methylthiopropyl Dithiophosphate] showed a mortality at 50 ppm (House fly) of 0%, a mortality at 250 ppm (House fly) of 100% and a mortality at 50 ppm (Spider mites [1]; [14]) of 0%. For the same compound, the mortality at 250 ppm (Spider mites [1]; [14]) was 100%, the mortality at 50 ppm (Bean aphids [2]; [15]) was 60% and the mortality at 250 ppm (Bean aphids [2]; [15]) was 100%. For the same compound, the mortality at 50 ppm (Spider mites [4]; [16]) was 100%, the mortality at 250 ppm (Spider mites [4]; [16]) was 100% and the mortality at 50 ppm (Mexican bean beetle; [17]) was 80%. The mortality at 250 ppm (Mexican bean beetle; [17]) was 100%, the “Mortality Produced, % - S.Army Worm” value (Southern army worm [6]) was 0% and the mortality at 50 ppm (Bean aphids [5]; [18]) was 0%. It also gave a mortality at 250 ppm (Bean aphids [5]; [18]) of 40%.
With CCOP(=O)(SCC(C)C)SCC(C)SC (stereo not shown) [Example 37, O-Ethyl S-2-Methylpropyl S'-2-Methylthiopropyl Dithiophosphate] the mortality at 50 ppm (House fly) was 45%, the mortality at 250 ppm (House fly) was 100% and the mortality at 50 ppm (Spider mites [1]; [14]) was 100%. It also gave a mortality at 250 ppm (Spider mites [1]; [14]) of 100%, a mortality at 50 ppm (Bean aphids [2]; [15]) of 10% and a mortality at 250 ppm (Bean aphids [2]; [15]) of 100%. It also gave a mortality at 50 ppm (Spider mites [4]; [16]) of 60%, a mortality at 250 ppm (Spider mites [4]; [16]) of 100% and a mortality at 50 ppm (Mexican bean beetle; [17]) of 100%. For the same compound, the mortality at 250 ppm (Mexican bean beetle; [17]) was 100%, the mortality at 50 ppm (Bean aphids [5]; [18]) was 70% and the mortality at 250 ppm (Bean aphids [5]; [18]) was 100%.
For CCCSCCSP(=O)(OCC)SCCC (stereo not shown) [2 (CIP)], the LD50 at 336 h (in vivo) was 215 mg/kg.
With CCOP(=O)(SCC(C)C)SC[S+]([O-])CC (stereo not shown) [ethylsulfinylmethyl ester, O-ethyl S-isobutyl S'-ethylsulfinylmethyl dithiophosphate] the thermal stability [7] was “thermal instability”.
Compound CCCSP(=O)(OCC)SCCSC (stereo not shown) [drawing 52] has a mortality at 560.425 g/ha (Bollworm larvae; [11]) of 72%, a mortality at 560.425 g/ha (Bollworm larvae; [12]) of 80% and a mortality at 560.425 g/ha (Bollworm larvae; [13]) of 89%.
For CCCSC(C)CSP(=O)(OCC)SCCC (stereo not shown) [drawing 54], the mortality at 560.425 g/ha (Bollworm larvae; [11]) was 87%, the mortality at 560.425 g/ha (Bollworm larvae; [12]) was 94% and the mortality at 560.425 g/ha (Bollworm larvae; [13]) was 99%.
